US9393329B2, “N-alkoxyamide conjugates as imaging agents” (Lantheus Medical Imaging, Inc., priority 2009, dated 2016)

What was measured:
[1] = tested on: aorta bearing atherosclerotic plaque; assay: Ex-vivo blood vessel binding assay; design: species or system New Zealand white rabbits; conditions: 153Gd-labeled compound 0.135 μCi in phosphate buffered saline, plaque-bearing rabbit aorta sections, 2 h at 37° C., washed; percentage of initial activity
Protocol: Aorta bearing atherosclerotic plaque was obtained from New Zealand white rabbits that were balloon stripped along the abdominal aorta and placed on a high fat diet (0.5% cholesterol) for 16-22 weeks. Vascular injury was produced with a 4-F Fogarty catheter along the abdominal aorta and right iliofemoral artery. This procedure generates an accelerated complex lesion development with a lipid rich core covered by a fibrous cap in rabbits. Harvested aorta sections (0.5 cm) were incubated with 0.135 μCi of ^153Gd-labeled compound diluted in phosphate buffered saline (450 μL) for 2 h at 37° C. The supernatant was removed and analyzed by HPLC to assay compound stability. The tissue section was then washed with phosphate buffered saline (3×10 mL), then resuspended (10 mL) and incubated at 37° C. an additional 1 h. The supernatant was then removed, the washing process repeated and the tissue finally counted on a gamma counter. The amount of compound bound to the tissue was determined as a percentage of the initial activity according to the following formula: […]

[2] = tested on: aorta of apolipoprotein E (ApoE) knockout mouse; assay: In-vivo ApoE mouse aorta uptake studies; conditions: ApoE knockout mice on high-fat diet, 0.3-0.4 mCi/kg bolus via tail vein; for aorta:blood / aorta:heart: 60 min, ratio; for aorta uptake (% ID/g): tissue harvested at 60 min
Protocol: Mice were fed a high-fat diet to accelerate plaque formation and compounds were tested in the mice between 35-42 weeks on diet. Test compounds were administered at 0.3-0.4 mCi/kg to anesthetized mice in a single, bolus injection via the tail vein. Blood samples were collected via the tail between 0-30 min post injection for pharmacokinetic analysis and mice were euthanized by CO2 at 60 min for tissue harvesting. The aorta was first flushed with saline through the left ventricle exiting via the femoral vein then removed from the heart to the renal bifurcation; additional biological samples were also collected (blood, muscle, liver, kidney, bile, urine, heart, femur, reproductive organ, lung, spleen and innominate artery). All samples were weighed and assayed for radioactivity; uptake is expressed as a percentage of injected dose per gram of tissue (% ID/g).

Row | % bound [1] [%] | aorta:blood [2] | aorta:heart [2] | aorta uptake (% ID/g) [2] [% ID/g] | Compound
1 | 6.9 | 2.0 | 9.2 | 6.1 ± 1.2 | CONC(=O)[C@@H](CCc1ccccc1)NCc1ccc(CNC(=O)CN2CCN(CC(=O)[O-])CCN(CC(=O)[O-])CCN(CC(=O)[O-])CC2)cc1.[153Gd+3] [Example 52]
2 |  | 0.8 | 4.2 | 1.5 ± 0.1 | O=C([O-])CN1CCN(CC(=O)[O-])CCN(CC(=O)NCc2ccc(CN[C@H](CCc3ccccc3)C(=O)NOCc3ccccc3)cc2)CCN(CC(=O)[O-])CC1.[153Gd+3] [Example 53]
3 |  | 1.2 | 5.3 | 2.5 ± 0.5 | CONC(=O)C(N)Cc1ccc(CNC(=O)CN2CCN(CC(=O)[O-])CCN(CC(=O)[O-])CCN(CC(=O)[O-])CC2)cc1.[153Gd+3] (stereo not shown) [Example 54]
4 |  | 1.0 | 8.8 | 3.0 ± 2.3 | NC(Cc1ccc(CNC(=O)CN2CCN(CC(=O)[O-])CCN(CC(=O)[O-])CCN(CC(=O)[O-])CC2)cc1)C(=O)NOCc1ccccc1.[153Gd+3] (stereo not shown) [Example 55]
